Assay results as given in PubChem BioAssay (NCI).
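96-well plates; 48 h exposure; 5 concentrations. Endpoints by linear interpolation between flanking doses. Not reached: highest tested concentration assigned. GI50 is the concentration that inhibits growth by half. The concentration for full growth arrest is given as TGI.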

Assays:
Assay in all cases: DTP human tumour cell line panel, 48 h
SK-MEL-28 melanoma = test system: SK-MEL-28 melanoma
K-562 leukemia = test system: K-562 leukemia
ACHN renal = test system: ACHN renal
DU-145 prostate = test system: DU-145 prostate
OVCAR-5 ovarian = test system: OVCAR-5 ovarian
SNB-75 CNS = test system: SNB-75 CNS
HS 578T breast = test system: HS 578T breast
RPMI-8226 leukemia = test system: RPMI-8226 leukemia
MOLT-4 leukemia = test system: MOLT-4 leukemia
HCT-15 colon = test system: HCT-15 colon
NCI-H226 lung = test system: NCI-H226 lung
BT-549 breast = test system: BT-549 breast
SK-MEL-5 melanoma = test system: SK-MEL-5 melanoma
KM12 colon = test system: KM12 colon
NCI-H23 lung = test system: NCI-H23 lung
TK-10 renal = test system: TK-10 renal
HOP-92 NSCLC = test system: HOP-92 NSCLC
SW-620 colon = test system: SW-620 colon
HT29 colon = test system: HT29 colon
NCI-H522 lung = test system: NCI-H522 lung
SNB-19 CNS = test system: SNB-19 CNS
CCRF-CEM leukemia = test system: CCRF-CEM leukemia
HCT-116 colon = test system: HCT-116 colon
SF-539 CNS = test system: SF-539 CNS
NCI/ADR-RES ovarian = test system: NCI/ADR-RES ovarian
HCC-2998 colon = test system: HCC-2998 colon
SR leukemia = test system: SR leukemia
OVCAR-8 ovarian = test system: OVCAR-8 ovarian
IGROV1 ovarian = test system: IGROV1 ovarian
RXF 393 renal = test system: RXF 393 renal
UACC-62 melanoma = test system: UACC-62 melanoma
EKVX NSCLC = test system: EKVX NSCLC
OVCAR-4 ovarian = test system: OVCAR-4 ovarian
A498 renal = test system: A498 renal
U251 CNS = test system: U251 CNS
UO-31 renal = test system: UO-31 renal
UACC-257 melanoma = test system: UACC-257 melanoma
SF-295 CNS = test system: SF-295 CNS
SK-OV-3 ovarian = test system: SK-OV-3 ovarian
NCI-H460 lung = test system: NCI-H460 lung
HL-60(TB) leukemia = test system: HL-60(TB) leukemia
MALME-3M melanoma = test system: MALME-3M melanoma
MCF7 breast = test system: MCF7 breast
MDA-MB-435 = test system: MDA-MB-435

`Cc1nn(-c2ccccc2)cc1/C=N/Nc1nc(Nc2ccccc2)nc(Nc2ccc(S(N)(=O)=O)cc2)n1` showed a GI50 (SK-MEL-28 melanoma) of 1.8 µM, a TGI (SK-MEL-28 melanoma) of 3.46 µM and a GI50 (K-562 leukemia) of 2.63 µM. For the same molecule, the TGI (K-562 leukemia) was greater than 100 µM, the GI50 (ACHN renal) was 1.9 µM and the TGI (ACHN renal) was 3.57 µM. For the same molecule, the GI50 (DU-145 prostate) was 3.06 µM, the TGI (DU-145 prostate) was 9.48 µM and the GI50 (OVCAR-5 ovarian) was 2.06 µM. For the same molecule, the TGI (OVCAR-5 ovarian) was 5.04 µM, the GI50 (SNB-75 CNS) was 2.69 µM and the TGI (SNB-75 CNS) was 8.72 µM. The GI50 (HS 578T breast) was 2.77 µM, the TGI (HS 578T breast) was 8.1 µM and the GI50 (RPMI-8226 leukemia) was 1.66 µM. The TGI (RPMI-8226 leukemia) was 5.41 µM, the GI50 (MOLT-4 leukemia) was 2.29 µM and the TGI (MOLT-4 leukemia) was greater than 100 µM. The GI50 (HCT-15 colon) was 2.67 µM, the TGI (HCT-15 colon) was greater than 100 µM and the GI50 (NCI-H226 lung) was 1.85 µM. It also gave a TGI (NCI-H226 lung) of 4.34 µM, a GI50 (BT-549 breast) of 1.85 µM and a TGI (BT-549 breast) of 4.56 µM. The GI50 (SK-MEL-5 melanoma) was 1.48 µM, the TGI (SK-MEL-5 melanoma) was 2.8 µM and the GI50 (KM12 colon) was 2.84 µM. It also gave a TGI (KM12 colon) of 8.33 µM, a GI50 (NCI-H23 lung) of 1.75 µM and a TGI (NCI-H23 lung) of 3.62 µM. It also gave a GI50 (TK-10 renal) of 1.48 µM, a TGI (TK-10 renal) of 3.5 µM and a GI50 (HOP-92 NSCLC) of 2.44 µM. The TGI (HOP-92 NSCLC) was 5.44 µM, the GI50 (SW-620 colon) was 3.38 µM and the GI50 (HT29 colon) was 2.88 µM. For the same molecule, the TGI (HT29 colon) was greater than 100 µM, the GI50 (NCI-H522 lung) was 2.66 µM and the TGI (NCI-H522 lung) was 8.27 µM. For the same molecule, the GI50 (SNB-19 CNS) was 3.44 µM, the TGI (SNB-19 CNS) was greater than 100 µM and the GI50 (CCRF-CEM leukemia) was 2.09 µM. It also gave a TGI (CCRF-CEM leukemia) greater than 100 µM, a GI50 (HCT-116 colon) of 2 µM and a TGI (HCT-116 colon) of 4.52 µM. For the same molecule, the GI50 (SF-539 CNS) was 1.71 µM, the TGI (SF-539 CNS) was 3.27 µM and the GI50 (NCI/ADR-RES ovarian) was greater than 100 µM. It also gave a TGI (NCI/ADR-RES ovarian) greater than 100 µM, a GI50 (HCC-2998 colon) of 1.88 µM and a TGI (HCC-2998 colon) of 3.63 µM. The GI50 (SR leukemia) was 2.45 µM, the TGI (SR leukemia) was greater than 100 µM and the GI50 (OVCAR-8 ovarian) was 2.05 µM. It also gave a TGI (OVCAR-8 ovarian) greater than 100 µM, a GI50 (IGROV1 ovarian) of 2.59 µM and a TGI (IGROV1 ovarian) of 6.7 µM. For the same molecule, the GI50 (RXF 393 renal) was 1.77 µM, the TGI (RXF 393 renal) was 3.39 µM and the GI50 (UACC-62 melanoma) was 1.78 µM. It also gave a TGI (UACC-62 melanoma) of 3.57 µM, a GI50 (EKVX NSCLC) of 2 µM and a TGI (EKVX NSCLC) of 5.09 µM. The GI50 (OVCAR-4 ovarian) was 2.56 µM, the TGI (OVCAR-4 ovarian) was 7.32 µM and the GI50 (A498 renal) was 1.71 µM. For the same molecule, the TGI (A498 renal) was 3.39 µM, the GI50 (U251 CNS) was 3.65 µM and the TGI (U251 CNS) was greater than 100 µM. It also gave a GI50 (UO-31 renal) of 1.72 µM, a TGI (UO-31 renal) of 3.54 µM and a GI50 (UACC-257 melanoma) of 2.5 µM. For the same molecule, the TGI (UACC-257 melanoma) was 7.43 µM, the GI50 (SF-295 CNS) was 2.23 µM and the TGI (SF-295 CNS) was 5.94 µM. For the same molecule, the GI50 (SK-OV-3 ovarian) was 2.93 µM, the TGI (SK-OV-3 ovarian) was 6.61 µM and the GI50 (NCI-H460 lung) was 2.77 µM. It also gave a TGI (NCI-H460 lung) of 7.38 µM, a GI50 (HL-60(TB) leukemia) of 2.24 µM and a TGI (HL-60(TB) leukemia) of 7.67 µM. For the same molecule, the GI50 (MALME-3M melanoma) was 1.6 µM, the TGI (MALME-3M melanoma) was 3.13 µM and the GI50 (MCF7 breast) was 1.55 µM. It also gave a TGI (MCF7 breast) of 3.43 µM, a GI50 (MDA-MB-435) of 1.77 µM and a TGI (MDA-MB-435) of 3.46 µM.
